Tested on: cerebellar granule neurons
Assay: Delayed addition of CRF after LY 294002, variation of Assay 1 (FIGS. 6A, 6B)
Format: cell-based, rat
Description: FIGS. 6A and 6B show neuronal survival results, using a variation of Assay 1 in which CRF (10 nM) was added at varying times (shown in hours) following LY 294002 (75 μM) addition. Therefore, granule neurons were cultured with the PI 3-kinase inhibitor LY 294002 (75 μM) in the presence of 10 nM CRF, added together with LY 294002 or at different times (shown in hours) following LY 294002 addition. FIG. 6A is the result from one experiment only. […] It appears from FIG. 6A that the neuroprotective effect is sustained when adding CRF at about 1-4 hrs after LY 294002 addition. From FIG. 6B, it appears that the neuroprotective effect is sustained when adding CRF up to 8 hours after LY 294002 addition.

H-SQEPPISLDLTFHLLREVLEMTKADQLAQQAHNNRKLLDIA-NH2 [CRF]
neuroprotective effect with delayed CRF addition (CRF 10 nM added 10, 24 and 32 hours after LY 294002 75 μM): Only a small neuroprotective effect | neuroprotective effect with delayed CRF addition (CRF 10 nM added 46 hours after LY 294002 75 μM): no neuroprotection | time of CRF addition after LY 294002 at which neuroprotective effect is sustained (FIG. 6A) (CRF 10 nM, LY 294002 75 μM, one experiment): 1 to 4 h | time of CRF addition after LY 294002 at which neuroprotective effect is sustained (FIG. 6B) (CRF 10 nM, LY 294002 75 μM, two experiments combined): up to 8 hours
